Reference: patent US5488060A, “Substituted thiadiazoles, compositions containing them and their use as antimicrobial and marine antifouling agents” (The Dow Chemical Company, priority 1994, dated 1996)
In brackets after ≈: the same amount, converted by molar mass. Like-named read-outs stand apart in the source and are kept apart here.

Key:
Assay type in all cases: cell-based
[1] = test system: Staphylococcus aureus (Sa); assay: Minimum inhibitory concentration (MIC) in nutrient agar, Staphylococcus aureus
Procedure: (§1) The antimicrobial activity of the compounds of the present invention is set forth as the minimum inhibitory concentration (MIC) for the active compounds and is determined for nine (9) bacteria, using nutrient agar, and seven (7) yeast and fungi, using malt yeast agar. This determination is conducted using a one percent solution of the test compound prepared in a mixture of acetone and water.
(§2) Nutrient agar is prepared at pH 6.8, representing a neutral medium, and at pH 8.2, representing an alkaline medium. The nutrient agars are prepared by adding 23 g of nutrient agar to one-liter of deionized water. In addition, the alkaline medium is prepared by adjusting a 0.04M solution of N-[tris-(hydroxymethyl)methyl]glycine buffered deionized water with concentrated sodium hydroxide to a pH of 8.5.
(§3) The test tubes containing the agar are cooled in a water bath until the temperature of the agar is 48° C. Then, an appropriate amount of the one percent solution of the test compound is added (except in the controls where no compound is added) to the respective test tubes so that the final concentrations are 500, […], 100, 50, 25, 10, 5, 2.5, 1.0 and zero parts per million of the test compound in the agar, thus having a known concentration of test compound dispersed therein. The contents of the test tubes are then transferred to respective petri plates. After drying for 24 hours, the petri plates containing nutrient agar are inoculated with bacteria and those containing malt yeast agar are inoculated with yeast and fungi.
(§4) The inoculation with bacteria is accomplished by using the following procedure. Twenty-four hour-cultures of each of the bacteria are prepared by incubating the respective bacteria in tubes containing nutrient broth for 24 hours at 30° C. in a shaker. Dilutions of each of the 24 hour-cultures are made so that nine separate suspensions (one for each of the nine test bacteria) are made, each containing 10^8 colony forming units (CFU) per mL of suspension of a particular bacteria. Aliquots of 0.3 mL of each of the bacterial suspensions are used to fill the individual wells of Steer's Replicator. For each microbial suspension, 0.3 mL was used to fill three wells (i.e., three wells of 0.3 mL each) so that for the nine different bacteria, 27 wells are filled. The Steer's Replicator is then used to inoculate both the neutral and alkaline pH nutrient agar petri plates.
(§5) The inoculated petri plates are incubated at 30° C. for 48 hours and then read to determine if the test compound which is incorporated into the agar prevented growth of the respective bacteria.

Escherichia coli (Ec) = assay: Minimum inhibitory concentration (MIC) in nutrient agar, Escherichia coli
Procedure: as §1, §2, §3, §4, §5

[2] = test system: Salmonella choleraesuis (Se); assay: Minimum inhibitory concentration (MIC) in nutrient agar, Salmonella choleraesuis; details: Salmonella enterica
Procedure: as §1, §2, §3, §4, §5

[3] = test system: Penicillium chrysogenum (Pc); assay: Minimum inhibitory concentration (MIC) in malt yeast agar, Penicillium chrysogenum; details: pH 5.5; malt yeast agar, 30° C., 72 hours for fungi; read-out: Minimum Inhibitory Concentration, PC
Procedure: as §1
(§6) Malt yeast agar is prepared at pH 5.5 by adding 3 g yeast extract and 45 g malt agar per liter of deionized water. The specific agar is dispensed in 30 mL aliquots into 25×200 mm test tubes, capped and autoclaved for 15 minutes at 115° C.
as §3
(§7) The inoculation with the yeast and fungi is accomplished as follows. Cultures of yeast and fungi are incubated for seven days on malt yeast agar at 30° C. These cultures are used to prepare suspensions by the following procedure. A suspension of each organism is prepared by adding 10 mL of sterile saline and 10 microliters of octylphenoxy polyethoxy ethanol to the agar slant of yeast or fungi. The sterile saline/octylphenoxy potyethoxy ethanol solution is then agitated with a sterile swab to suspend the microorganism grown on the slant. Each resulting suspension is diluted into sterile saline (1 part suspension: 9 parts sterile saline). Aliquots of these dilutions are placed in individual wells of Steer's Replicator and petri plates inoculated as previously described. The petri plates are incubated at 30° C. and read after 48 hours for yeast and 72 hours for fungi.

[4] = test system: Enterobacter aerogenes (Ea); assay: Minimum inhibitory concentration (MIC) in nutrient agar, Enterobacter aerogenes; details: Klebsiella aerogenes
Procedure: as §1, §2, §3, §4, §5

[5] = test system: Aureobasidium pullulan (Ap); assay: Minimum inhibitory concentration (MIC) in malt yeast agar, Aureobasidium pullulan; details: pH 5.5, read-out: Minimum Inhibitory Concentration, Ap
Procedure: as §1, §6, §3, §7

Trichoderma viride (Tv) = assay: Minimum inhibitory concentration (MIC) in malt yeast agar, Trichoderma viride; details: pH 5.5; malt yeast agar, 30° C., 72 hours for fungi; read-out: Minimum Inhibitory Concentration, Tv
Procedure: as §1, §6, §3, §7

[6] = test system: Saccharomyces cerevisiae (Sc); assay: Minimum inhibitory concentration (MIC) in malt yeast agar, Saccharomyces cerevisiae
Procedure: as §1, §6, §3, §7

[7] = test system: Klebsiella pneumoniae (Kp); assay: Minimum inhibitory concentration (MIC) in nutrient agar, Klebsiella pneumoniae
Procedure: as §1, §2, §3, §4, §5

Bacillus subtilis (Bs) = assay: Minimum inhibitory concentration (MIC) in nutrient agar, Bacillus subtilis
Procedure: as §1, §2, §3, §4, §5

[8] = test system: Pseudomonas aeruginosa (PRD-10); assay: Minimum inhibitory concentration (MIC) in nutrient agar, Pseudomonas aeruginosa PRD-10; details: 48 h
Procedure: as §1, §2, §3, §4, §5

Proteus vulgaris (Pv) = assay: Minimum inhibitory concentration (MIC) in nutrient agar, Proteus vulgaris
Procedure: as §1, §2, §3, §4, §5

Aspergillus niger (An) = assay: Minimum inhibitory concentration (MIC) in malt yeast agar, Aspergillus niger; details: pH 5.5; malt yeast agar, 30° C., 72 hours for fungi; read-out: Minimum Inhibitory Concentration, An
Procedure: as §1, §6, §3, §7

Candida albicans (Ca) = assay: Minimum inhibitory concentration (MIC) in malt yeast agar, Candida albicans
Procedure: as §1, §6, §3, §7

[9] = test system: Pseudomonas aeruginosa (Pa); assay: Minimum inhibitory concentration (MIC) in nutrient agar, Pseudomonas aeruginosa
Procedure: as §1, §2, §3, §4, §5

Fusarium oxysporum (Fo) = assay: Minimum inhibitory concentration (MIC) in malt yeast agar, Fusarium oxysporum
Procedure: as §1, §6, §3, §7

[10] = 48 h, pH 8.2, read-out: Minimum Inhibitory Concentration, Sa
[11] = pH 6.8, nutrient agar, 30° C., 48 hours, read-out: Minimum Inhibitory Concentration, Sa
[12] = 48 h, pH 6.8, read-out: Minimum Inhibitory Concentration, Ec
[13] = 48 h, pH 8.2, read-out: Minimum Inhibitory Concentration, Ec
[14] = 48 h, pH 6.8, read-out: Minimum Inhibitory Concentration, SC
[15] = 48 h, pH 8.2, read-out: Minimum Inhibitory Concentration, SC
[16] = 48 h, pH 6.8, read-out: Minimum Inhibitory Concentration, Ea
[17] = 48 h, pH 8.2, read-out: Minimum Inhibitory Concentration, Ea
[18] = 48 h, pH 8.2, read-out: Minimum Inhibitory Concentration, Kp
[19] = pH 6.8, nutrient agar, 30° C., 48 hours, read-out: Minimum Inhibitory Concentration, Kp
[20] = 48 h, pH 8.2, read-out: Minimum Inhibitory Concentration, Bs
[21] = pH 6.8, nutrient agar, 30° C., 48 hours, read-out: Minimum Inhibitory Concentration, Bs
[22] = pH 6.8, read-out: Minimum Inhibitory Concentration, PRD
[23] = pH 8.2, read-out: Minimum Inhibitory Concentration, PRD
[24] = 48 h, pH 6.8, read-out: Minimum Inhibitory Concentration, Pv
[25] = 48 h, pH 8.2, read-out: Minimum Inhibitory Concentration, Pv
[26] = pH 5.5, malt yeast agar, 30° C., 48 hours for yeast, read-out: Minimum Inhibitory Concentration, Ca
[27] = pH 8.2, nutrient agar, 30° C., 48 hours, read-out: Minimum Inhibitory Concentration, Pa
[28] = pH 5.5, malt yeast agar, 30° C., 48 hours for yeast, read-out: Minimum Inhibitory Concentration, SC
[29] = pH 6.8, nutrient agar, 30° C., 48 hours, read-out: Minimum Inhibitory Concentration, Pa

Compound | MIC [1, 10] [µg/mL] | MIC [1, 11] [µg/mL] | MIC (Escherichia coli (Ec); [12]) [µg/mL] | MIC (Escherichia coli (Ec); [13]) [µg/mL] | MIC [2, 14] [µg/mL] | MIC [2, 15] [µg/mL] | MIC [4, 16] [µg/mL] | MIC [4, 17] [µg/mL] | MIC [5] [µg/mL] | MIC (Trichoderma viride (Tv)) [µg/mL] | MIC [7, 18] [µg/mL] | MIC [7, 19] [µg/mL] | MIC (Bacillus subtilis (Bs); [20]) [µg/mL] | MIC (Bacillus subtilis (Bs); [21]) [µg/mL] | MIC [8, 22] [µg/mL] | MIC [8, 23] [µg/mL] | MIC (Proteus vulgaris (Pv); [24]) [µg/mL] | MIC (Proteus vulgaris (Pv); [25]) [µg/mL] | MIC (Aspergillus niger (An)) [µg/mL] | MIC (Candida albicans (Ca); [26]) [µg/mL] | also measured
N#CSc1nsnc1-c1ccc(C(F)(F)F)cc1 [Example X, 4-(4-Trifluoromethylphenyl)-3-thiocyanato-1,2,5-thiadiazole] | 500 (≈ 1740 µM) | > 500 | > 500 | 500 (≈ 1740 µM) | > 500 | 500 (≈ 1740 µM) | > 500 | 500 (≈ 1740 µM) | 2.5 (≈ 8.7 µM) | 2.5 (≈ 8.7 µM) | 500 (≈ 1740 µM) | > 500 | 500 (≈ 1740 µM) | 25 (≈ 87 µM) | > 500 | 500 (≈ 1740 µM) | > 500 | 500 (≈ 1740 µM) | 5 (≈ 17.4 µM) | 5 (≈ 17.4 µM) | MIC [3]: 5 µg/mL (≈ 17.4 µM); MIC ([6]; 48 h, pH 5.5, read-out: Minimum Inhibitory Concentration, SC): 2.5 µg/mL (≈ 8.7 µM); MIC ([9]; 48 h, pH 6.8, read-out: Minimum Inhibitory Concentration, Pa): > 50 µg/mL; MIC [9, 27]: 500 µg/mL (≈ 1740 µM)
N#CSc1nsnc1-c1cccnc1 [Example XV, 4-(3-Pyridyl)-3-thiocyanato-1,2,5-thiadiazole] |  |  |  | 500 (≈ 2270 µM) |  | 500 (≈ 2270 µM) |  | 500 (≈ 2270 µM) | 50 (≈ 227 µM) |  | 500 (≈ 2270 µM) | 100 (≈ 454 µM) |  | 25 (≈ 113 µM) | 500 (≈ 2270 µM) | 500 (≈ 2270 µM) |  | 500 (≈ 2270 µM) | 100 (≈ 454 µM) |  | MIC ([1]; 48 h, pH 6.8, read-out: Minimum Inhibitory Concentration, Sa): 50 µg/mL (≈ 227 µM); MIC (Fusarium oxysporum (Fo); 72 h, pH 5.5, read-out: Minimum Inhibitory Concentration, Fo): 50 µg/mL (≈ 227 µM); MIC (Escherichia coli (Ec); pH 6.8, nutrient agar, 30° C., 48 hours, read-out: Minimum Inhibitory Concentration, Ec): 250 µg/mL (≈ 1130 µM); MIC ([2]; pH 6.8, nutrient agar, 30° C., 48 hours, read-out: Minimum Inhibitory Concentration, SC): 250 µg/mL (≈ 1130 µM); MIC ([4]; pH 6.8, nutrient agar, 30° C., 48 hours, read-out: Minimum Inhibitory Concentration, Ea): 250 µg/mL (≈ 1130 µM); MIC [6, 28]: 50 µg/mL (≈ 227 µM); MIC (Bacillus subtilis (Bs); pH 8.2, nutrient agar, 30° C., 48 hours, read-out: Minimum Inhibitory Concentration, Bs): 100 µg/mL (≈ 454 µM); MIC (Proteus vulgaris (Pv); pH 6.8, nutrient agar, 30° C., 48 hours, read-out: Minimum Inhibitory Concentration, Pv): 100 µg/mL (≈ 454 µM); MIC (Candida albicans (Ca); 48 h, pH 5.5, read-out: Minimum Inhibitory Concentration, Ca): 100 µg/mL (≈ 454 µM); MIC ([9]; 48 h, pH 8.2, read-out: Minimum Inhibitory Concentration, Pa): 500 µg/mL (≈ 2270 µM); MIC [9, 29]: 500 µg/mL (≈ 2270 µM)
COC(=O)c1ccc(-c2nsnc2SCSC#N)cc1 [Example XXVIII] | 500 (≈ 1550 µM) | 500 (≈ 1550 µM) | 500 (≈ 1550 µM) | 500 (≈ 1550 µM) | 500 (≈ 1550 µM) | > 500 | 500 (≈ 1550 µM) | > 500 | 50 (≈ 155 µM) | > 500 | > 500 | 500 (≈ 1550 µM) | 500 (≈ 1550 µM) |  | 500 (≈ 1550 µM) | > 500 | 500 (≈ 1550 µM) | > 500 | 100 (≈ 309 µM) | 500 (≈ 1550 µM) | MIC (Fusarium oxysporum (Fo); pH 5.5, malt yeast agar, 30° C., 72 hours for fungi, read-out: Minimum Inhibitory Concentration, Fo): 250 µg/mL (≈ 773 µM); MIC [6, 28]: 250 µg/mL (≈ 773 µM); MIC (Bacillus subtilis (Bs); 48 h, pH 6.8, read-out: Minimum Inhibitory Concentration, Bs): 500 µg/mL (≈ 1550 µM); MIC [9, 29]: 500 µg/mL (≈ 1550 µM); MIC [9, 27]: > 500 µg/mL
